Assay results: patent US6060077A, “Unit galenical formulation for local hormonotherapy of vaginal dryness” (priority 1995, dated 2000)
Entries after “also recorded” stand apart in the source; their conditions may differ.

Columns and labels:
[1] = test system: vulvo-vaginal mucous membrane; conditions: in vivo; cited from earlier work
[2] = plasma estrone after vaginal administration of 17β-estradiol; format: in vivo, human (patients)
Description: In all cases, the estrone concentrations never exceeded 30 pg/ml.
(§1) General conclusion: After a single vaginal administration of a soft capsule with 2.5 μg, 5 μg and 10 μg doses of 17β-estradiol, clinical tolerance was excellent for the group of six subjects included in the trial. Biological tolerance was also excellent.

[3] = test system: receptors with high estradiol affinity in the vaginal epithelium; conditions: cited from earlier work; for affinity for vaginal epithelium receptors (decreasing order): female
[4] = test system: vaginal mucous membrane / endometrium; conditions: 25 μg of 17β-estradiol per vaginal tablet, cited from earlier work
[5] = test system: vaginal estrogenic receptors; conditions: cited from earlier work; for agonist/antagonist properties: estrogenic receptors; for effect on endogenous estradiol: in the presence of endogenous estrogen
[6] = plasma estradiol after vaginal administration (pharmacokinetic analysis); format: in vivo, human (patients)
Description: Pharmacokinetic analysis: From a pharmacokinetic viewpoint, the plasmic estradiol concentrations remained unquantifiable in the group of subjects after administration of low doses (2.5 μg and 5 μg) and in half of the subjects at a high dose (10 μg).
as §1

[7] = 10 μg, micronized free form, vaginal

Compound: C[C@]12CC[C@@H]3c4ccc(O)cc4CC[C@H]3[C@@H]1CC[C@@H]2O [17β-estradiol]
- local blood flow [1]: increase
- quantity of vaginal secretions [1]: increase
- transvaginal potential difference [1]: increase the transvaginal potential difference
- trophic effect in the vulvo-vaginal mucous membrane [1]: recognized and has been widely described
- vaginal pH [1]: reduce the vaginal pH
- plasmic estrone amounts after vs before treatment ([2]; capsule with 10 μg dose of 17β-estradiol, the other subjects): comparable with the amounts measured before treatment
- estrone concentrations after vs before treatment ([2]; in general, after 17β-estradiol 2.5 μg, 5 μg and 10 μg, soft capsule): of the same order of magnitude as those measured before treatment
- proportionality between estrone Cmax or SSC and the administered dose ([2]; in vivo): no proportionality
- affinity for vaginal estrogenic receptors ([3]; in words): high affinity
- affinity for vaginal epithelium receptors (decreasing order) [3]: 17β-estradiol>estriol>estrone
- cytological, histological and clinical improvement in the vaginal mucous membrane ([4]; daily): desired cytological, histological and clinical improvement
- endometrial proliferation ([4]; daily): endometrial proliferation was noted in certain patients
- systemic passage of 17β-estradiol ([4]; indicated by endometrial proliferation): systemic passage
- agonist/antagonist properties [5]: physiological estrogenic agonist; also recorded: pure agonist; also recorded: complete agonist
- effect on endogenous estradiol [5]: adding effects in the presence of endogenous estrogen
- vaginal absorption of estradiol from soft capsules ([6]; 2.5 μg to 10 μg doses of 17β-estradiol): substantially zero
- systemic passage [6, 7]: only slight systemic passage is observed
- time of plasmic peak after administration [6, 7]: about one
- vaginal resorption of estradiol ([6]; capsules with 2.5 μg and 5 μg doses of 17β-estradiol): zero

Compound: C[C@]12CC[C@@H]3c4ccc(O)cc4CC[C@H]3[C@@H]1C[C@@H](O)[C@@H]2O [estriol]
- affinity for vaginal epithelium receptors (decreasing order) [3]: 17β-estradiol>estriol>estrone
- intrinsic activity relative to 17β-estradiol ([5]; compared with 17β-estradiol): less active
- agonist/antagonist properties [5]: partially agonist properties and even antagonist properties
- effect on endogenous estradiol [5]: antagonistic effect on endogenous estradiol

Compound: C[C@]12CC[C@@H]3c4ccc(O)cc4CC[C@H]3[C@@H]1CCC2=O [estrone]
- affinity for vaginal epithelium receptors (decreasing order) [3]: 17β-estradiol>estriol>estrone
